Each structure is given as a SMILES string.

As usually defined, the melting point is the temperature of the solid-liquid transition. As to `Nc1cc(-c2ccccc2F)nc(C(=O)O)c1Cl` [Compound 142, 4-Amino-3-chloro-6-(2-fluorophenyl)pyridine-2-carboxylic acid], the melting point is 121 to 122 °C. `COCc1cc(-c2cc(N)c(Cl)c(C(=O)OC)n2)ccc1Cl` [Compound 71, Methyl 4-amino-3-chloro-6-(4-chloro-3-methoxymethylphenyl)pyridine-2-carboxylate] showed a melting point of 73 to 74 °C.

In turn, `Nc1cc(-c2cc(Cl)ccc2Cl)nc(C(=O)O)c1Cl` [Compound 177, 4-Amino-3-chloro-6-(2,5-dichlorophenyl)pyridine-2-carboxylic acid] registered a melting point of 213 to 215 °C. The result for `CCOC(=O)c1nc(-c2ccc(C)cc2)cc(N)c1Cl` [Compound 263, Ethyl 4-amino-3-chloro-6-(4-methylphenyl)pyridine-2-carboxylate] reads 129 to 130 °C; that for `COC(=O)c1nc(-c2cc(Cl)c(C)cc2F)cc(NC(C)=O)c1Cl` [Compound 78, Methyl 4-acetamido-3-chloro-6-(5-chloro-2-fluoro-4-methylphenyl)pyridine-2-carboxylate], 187 to 195 °C.

Regarding `Nc1cc(-c2ccc(CF)cc2)nc(C(=O)O)c1Cl` [Compound 160, 4-Amino-3-chloro-6-[4-(fluoromethyl)phenyl]pyridine-2-carboxylic acid], the melting point lay in the range of 156 to 157 °C. The molecule `Nc1c(Cl)c(C(=O)O)nc(-c2ccccc2)c1Cl` [Compound 133, 4-Amino-3,5-dichloro-6-(phenyl)pyridine-2-carboxylic acid] yielded a melting point of 135 °C. The figure for `Cc1ccc(-c2cc(N)c(Cl)c(C(=O)O)n2)c(Cl)c1` [Compound 190, 4-Amino-3-chloro-6-(2-chloro-4-methylphenyl)pyridine-2-carboxylic acid] is 71 to 72 °C; for `CC(C)c1ccc(-c2cc(N)c(Cl)c(C(=O)O)n2)cc1` [Compound 147, 4-Amino-3-chloro-6-(4-isopropylphenyl)pyridine-2-carboxylic acid] it is 142 to 143 °C. The figure for `COc1ccc(-c2nc(C(=O)O)c(Cl)c(N)c2Cl)cc1` [Compound 134, 4-Amino-3,5-dichloro-6-(4-methoxyphenyl)pyridine-2-carboxylic acid] is 139 to 140 °C (dec.); for `Nc1c(Cl)c(C(=O)O)nc(-c2cncs2)c1Cl` [Compound 241, 4-Amino-3,5-dichloro-6-(5-thiazolyl)pyridine-2-carboxylic acid] it is 175 to 177 °C; for `COC(=O)c1nc(-c2ccc(OC)c(OC)c2)cc(N)c1Cl` [Compound 64, Methyl 4-amino-3-chloro-6-(3,4-dimethoxyphenyl)pyridine-2-carboxylate] it is 126 to 127 °C. The figure for `Cc1ccc(-c2cc(N)c(Cl)c(C(=O)O)n2)cc1Cl` [Compound 164, 4-Amino-3-chloro-6-(3-chloro-4-methylphenyl)pyridine-2-carboxylic acid] is 188 °C; for `COC(=O)c1nc(-c2ccc(Cl)cc2)c(F)c(N)c1Cl` [Compound 14, Methyl 4-amino-3-chloro-5-fluoro-6-(4-chlorophenyl)pyridine-2-carboxylate] it is 233 to 236 °C; for `COC(=O)c1nc(-c2cc(Cl)c(C)cc2F)cc(N)c1Cl` [Compound 79, Methyl 4-amino-3-chloro-6-(5-chloro-2-fluoro-4-methylphenyl)pyridine-2-carboxylate] it is 108 to 110 °C. Molecule `COc1ccc(OC)c(-c2cc(N)c(Cl)c(C(=O)O)n2)c1` [Compound 194, 4-Amino-3-chloro-6-(2,5-dimethoxyphenyl)pyridine-2-carboxylic acid] yielded a melting point of 185 to 186 °C. The result for `COC(=O)c1nc(-c2ccc(C)cc2)cc(NC(C)=O)c1Cl` [Compound 83, Methyl 4-acetamido-3-chloro-6-(4-methylphenyl)pyridine-2-carboxylate] reads 156 °C; that for `COC(=O)c1nc(-c2ccccn2)cc(N)c1Cl` [Compound 109, Methyl 4-amino-3-chloro-6-(2-pyridinyl)pyridine-2-carboxylate], 142 to 145 °C; that for `COC(=O)c1nc(-c2ccc(OC(F)(F)F)cc2)cc(N)c1Cl` [Compound 56, Methyl 4-amino-3-chloro-6-[4-(trifluoromethoxy)phenyl]pyridine-2-carboxylate], 119 to 120 °C. For the molecule `COC(=O)c1nc(-c2ccsc2)cc(N)c1Cl` [Compound 122, Methyl 4-amino-3-chloro-6-(3-thienyl)pyridine-2-carboxylate], the melting point came out at 129 °C. With `COc1cc(Cl)ccc1-c1cc(N)c(Cl)c(C(=O)O)n1` [Compound 186, 4-Amino-3-chloro-6-(4-chloro-2-methoxyphenyl)pyridine-2-carboxylic acid], the melting point fell in the range of 182 to 183 °C. In the case of `COC(=O)c1nc(-c2ccco2)cc(N)c1Cl` [Compound 110, Methyl 4-amino-3-chloro-6-(2-furanyl)pyridine-2-carboxylate], the melting point stood at 117 °C. The result for `COc1ccc(-c2cc(N)c(Cl)c(C(=O)O)n2)cc1OC` [Compound 185, 4-Amino-3-chloro-6-(3,4-dimethoxyphenyl)pyridine-2-carboxylic acid] reads 182 to 183 °C. The result for `COc1ccc(-c2cc(N)c(Cl)c(C(=O)O)n2)cc1C` [Compound 193, 4-Amino-3-chloro-6-(4-methoxy-3-methylphenyl)pyridine-2-carboxylic acid] reads 131 °C; that for `COCc1cc(-c2cc(NC(C)=O)c(Cl)c(C(=O)OC)n2)ccc1Cl` [Compound 70, Methyl 4-acetamido-3-chloro-6-(4-chloro-3-methoxymethylphenyl)pyridine-2-carboxylate], 120 to 122 °C.

`COC(=O)c1nc(-c2ccc(Cl)cc2OC)cc(NC(C)=O)c1Cl` [Compound 66, Methyl 4-acetamido-3-chloro-6-(4-chloro-2-methoxyphenyl)pyridine-2-carboxylate] returned a melting point of 176 to 178 °C. The molecule `COC(=O)c1nc(-c2nccs2)cc(NC(C)=O)c1Cl` [Compound 103, Methyl 4-acetamido-3-chloro-6-(2-thiazolyl)pyridine-2-carboxylate] gave a melting point of 187 to 188 °C. The result for `COCc1cc(-c2cc(N)c(Cl)c(C(=O)O)n2)ccc1Cl` [Compound 195, 4-Amino-3-chloro-6-(4-chloro-3-methoxymethylphenyl)pyridine-2-carboxylic acid] reads 162 °C. `CCCCCCCCCCOC(=O)c1nc(-c2ccc(Cl)cc2)c(F)c(N)c1Cl` [Compound 244, Decyl 4-amino-3-chloro-5-fluoro-6-(4-chlorophenyl)pyridine-2-carboxylate]: the melting point lay in the range of 62 to 63 °C. The figure for `COC(=O)c1nc(-c2nnn(C)n2)cc(N)c1Cl` [Compound 11, Methyl 4-amino-3-chloro-6-(2-methyl-2H-tetrazol-5-yl)pyridine-2-carboxylate] is 250 to 252 °C; for `Nc1c(F)c(-c2ccc(Cl)nc2)nc(C(=O)O)c1Cl` [Compound 221, 4-Amino-3-chloro-5-fluoro-6-(6-chloro-3-pyridinyl)pyridine-2-carboxylic acid] it is 125 °C (dec.).

The values above are taken from patent publication US6784137B2, “6-aryl-4-aminopicolinates and their use as herbicides” (Dow AgroSciences LLC, priority 2001, dated 2004).
